Measurements reported in patent US20250154198A1, “PEPTIDE INHIBITORS OF INTERLEUKIN-23 RECEPTOR” (Zealand Pharma A/S, priority 2021, published 2025).
*1 amine or outer side, *2 acyl side, *3 side chain or, on linkers, in order; H or OH if unused. Where a SMILES comes first, the peptide text is derived from it. Bridges are numbered along the chain shown (N, C = ends). [ ]: non-standard residue; d: D form. Pipz(1-CH2CO,4-CH2CH2NH) = O=C(CN1CCN(CCN[*:1])CC1)[*:2]; dTrp(6-F) = N[C@H](Cc1c[nH]c2cc(F)ccc12)C(=O)O; αMeAla(3-pyridyl) = C[C@](N)(Cc1cccnc1)C(=O)O; Trp(1-Me) = Cn1cc(C[C@H](N)C(=O)O)c2ccccc21; Phe(3,4-Me2) = Cc1ccc(C[C@H](N)C(=O)O)cc1C; Bip = N[C@@H](Cc1ccc(-c2ccccc2)cc1)C(=O)O; Phe(4-Me) = Cc1ccc(C[C@H](N)C(=O)O)cc1; dPhe(4-F) = N[C@H](Cc1ccc(F)cc1)C(=O)O; 2Nal = N[C@@H](Cc1ccc2ccccc2c1)C(=O)O; AEF = NCCOc1ccc(C[C@H](N)C(=O)O)cc1; X1 = O=C(Cc1ccc(CN[*:1])cc1)[*:2]; αMeL = CC(C)C[C@](C)(N)C(=O)O; CH2COCH2 = O=C(C[*:1])C[*:2]; Phg = N[C@H](C(=O)O)c1ccccc1; αMeV = CC(C)[C@](C)(N)C(=O)O; Dab = NCC[C@H](N)C(=O)O; Ahx = NCCCCCC(=O)O

Columns and labels:
[1] = Peptide stability in simulated intestinal fluid (SIF); assay type: in vitro ADME; conditions: pig, simulated intestinal fluid (SIF) with porcine pancreatin, Table 3-2, porcine pancreatin, pH 6.8, 37° C., 10 μM; for remaining at 1 h, 10 μM: read-out: SIF (% remaining 1 h); for remaining at 4 h, 10 μM: read-out: SIF (% remaining 4 h)
Method: Determination of Peptide Stability in Simulated Gastric Fluid (SGF) and Simulated Intestinal Fluid (SIF)
SGF was prepared by dissolving sodium chloride (0.2 g) in 50 mL of water. A volume of 0.7 mL of 10 M HCl was added to adjust the pH of the solution to 1.2 and the volume made up to 100 mL with water. […] SIF was prepared by dissolving monobasic potassium phosphate (0.68 g) in 50 mL of water and adjusting the pH to 6.8 with 1 M NaOH. The volume was subsequently made up to 100 mL with water. 200 mg porcine pancreatin (P1625, Sigma Aldrich) was gently dissolved into 20 mL preheated (37° C.) solution (10 g/L) immediately prior to the incubation.
The incubation was performed at 37° C. with gentle shaking. […] After the last timepoint, the sampling plate was mixed for 10 min on a shaking table and centrifuged 10 min at 2200 g. 70 μL resulting supernatant was diluted with 150 μL water, mixed and centrifugated before analysis by liquid chromatography high resolution mass spectrometry. […] Percent remaining at each timepoint was calculated relative to timepoint zero based on absolute peak areas.

human IL-23R = target: T1, human IL-23R (Homo sapiens, UniProt Q5VWK5); assay: Binding assay (NanoBRET displacement of fluorophore-labelled reference compound) for estimating binding affinity to human IL-23R; conditions: Table 3-1; read-out: Ki hIL-23R
T1 construct: UniProtKB—Q5VWK5, amino acids 22-629; secretion signal of the plasmid (Promega N1371); expressed in transfected cells
T1 sequence (Q5VWK5 22-629): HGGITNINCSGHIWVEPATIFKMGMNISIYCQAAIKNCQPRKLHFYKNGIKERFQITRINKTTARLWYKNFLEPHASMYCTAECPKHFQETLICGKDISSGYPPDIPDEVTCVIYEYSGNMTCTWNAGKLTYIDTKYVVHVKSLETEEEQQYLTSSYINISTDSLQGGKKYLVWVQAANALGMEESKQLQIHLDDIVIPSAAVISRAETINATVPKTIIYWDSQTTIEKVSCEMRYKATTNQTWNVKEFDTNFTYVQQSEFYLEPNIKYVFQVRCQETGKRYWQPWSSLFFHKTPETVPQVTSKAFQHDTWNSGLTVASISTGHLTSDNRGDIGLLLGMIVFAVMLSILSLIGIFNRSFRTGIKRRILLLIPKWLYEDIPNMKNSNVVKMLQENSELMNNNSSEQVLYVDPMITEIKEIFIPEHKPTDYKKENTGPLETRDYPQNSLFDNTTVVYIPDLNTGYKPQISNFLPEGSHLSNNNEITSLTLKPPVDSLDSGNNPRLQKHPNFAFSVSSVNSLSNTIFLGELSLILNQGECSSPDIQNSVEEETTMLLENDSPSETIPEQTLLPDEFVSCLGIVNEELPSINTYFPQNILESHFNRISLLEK

remaining at 1 h, 10 μM [1] [%]	remaining at 4 h, 10 μM [1] [%]	Ki (human IL-23R) [pM]	SMILES
–	104	–	CC[C@H](C)[C@@H]1NC(=O)Cc2ccc(cc2)CNC(=O)CC[C@@H](C(=O)N[C@@H](CCN)C(=O)N[C@@](C)(Cc2cccnc2)C(N)=O)NC(=O)[C@](C)(C(C)C)NC(=O)[C@H](Cc2ccc(C)c(C)c2)NC(=O)[C@H](Cc2ccc(-c3ccccc3)cc2)NC(=O)[C@@H]2CCNC(=O)CC[C@H](NC1=O)C(=O)N[C@@H](Cc1c[nH]c3ccccc13)C(=O)N[C@@H](CCC(N)=O)C(=O)N2 [Compound 168, [4-Aminomethyl-phenylacetyl](1c)*IE(2c)WQ[Dab](2c)[Bip][F(3,4-Me)][2-Me-Val]E(1c)[Dab][2-Me-3-(3-Pyridyl)-Ala]-[NH2]] ([X1]IEWQ[Dab][Bip][Phe(3,4-Me2)][αMeV]E[Dab][αMeAla(3-pyridyl)]-NH2; lactam 3-6, N-10)
–	62	–	CC[C@H](C)[C@@H]1NC(=O)Cc2ccc(cc2)CNC(=O)CC[C@@H](C(=O)N[C@@H](CCN)C(=O)N[C@@](C)(Cc2cccnc2)C(N)=O)NC(=O)[C@](C)(C(C)C)NC(=O)[C@H](Cc2ccc(C)c(C)c2)NC(=O)[C@@H](Cc2ccc(F)cc2)NC(=O)[C@@H]2CCNC(=O)CC[C@H](NC1=O)C(=O)N[C@@H](Cc1c[nH]c3ccccc13)C(=O)N[C@@H](CCC(N)=O)C(=O)N2 [Compound 170, [4-Aminomethyl-phenylacetyl](1c)*IE(2c)WQ[Dab](2c)[{d}F(4-F)][F(3,4-Me)][2-Me-Val]E(1c)[Dab][2-Me-3-(3-Pyridyl)-Ala]-[NH2]] ([X1]IEWQ[Dab][dPhe(4-F)][Phe(3,4-Me2)][αMeV]E[Dab][αMeAla(3-pyridyl)]-NH2; lactam 3-6, N-10)
–	86	–	CC[C@H](C)[C@@H]1NC(=O)Cc2ccc(cc2)CNC(=O)CC[C@@H](C(=O)N[C@@H](CCN)C(=O)N[C@@](C)(Cc2cccnc2)C(N)=O)NC(=O)[C@](C)(C(C)C)NC(=O)[C@H](Cc2ccc(C)c(C)c2)NC(=O)[C@H](c2ccccc2)NC(=O)[C@@H]2CCNC(=O)CC[C@H](NC1=O)C(=O)N[C@@H](Cc1c[nH]c3ccccc13)C(=O)N[C@@H](CCC(N)=O)C(=O)N2 [Compound 174, [4-Aminomethyl-phenylacetyl](1c)*IE(2c)WQ[Dab](2c)[Phg][F(3,4-Me)][2-Me-Val]E(1c)[Dab][2-Me-3-(3-Pyridyl)-Ala]-[NH2]] ([X1]IEWQ[Dab][Phg][Phe(3,4-Me2)][αMeV]E[Dab][αMeAla(3-pyridyl)]-NH2; lactam 3-6, N-10)
–	63	–	CC[C@H](C)[C@@H]1NC(=O)Cc2ccc(cc2)CNC(=O)CC[C@@H](C(=O)N[C@@H](CCN)C(=O)N[C@@](C)(Cc2cccnc2)C(N)=O)NC(=O)[C@](C)(C(C)C)NC(=O)[C@@H](Cc2c[nH]c3cc(F)ccc23)NC(=O)[C@H](Cc2ccc(C)cc2)NC(=O)[C@@H]2CCNC(=O)CC[C@H](NC1=O)C(=O)N[C@@H](Cc1c[nH]c3ccccc13)C(=O)N[C@@H](CCC(N)=O)C(=O)N2 [Compound 177, [4-Aminomethyl-phenylacetyl](1c)*IE(2c)WQ[Dab](2c)[F(4-Me)][{d}6-F-Trp][2-Me-Val]E(1c)[Dab][2-Me-3-(3-Pyridyl)-Ala]-[NH2]] ([X1]IEWQ[Dab][Phe(4-Me)][dTrp(6-F)][αMeV]E[Dab][αMeAla(3-pyridyl)]-NH2; lactam 3-6, N-10)

More lines, now with the values behind:

SMILES	remaining at 1 h, 10 μM [1] [%]	remaining at 4 h, 10 μM [1] [%]	Ki (human IL-23R) [pM]
CC(C)C[C@]1(C)NC(=O)[C@H](Cc2ccc3ccccc3c2)NC(=O)[C@H](Cc2ccc(OCCN)cc2)NC(=O)[C@@H]2CCC(=O)NCC[C@H](NC(=O)[C@H](CO)NC(=O)Cc3ccc(cc3)CNC(=O)CC[C@@H](C(=O)N[C@@H](CCN)C(=O)N[C@@H](Cc3cccnc3)C(N)=O)NC1=O)C(=O)N[C@@H](Cc1c[nH]c3ccccc13)C(=O)N[C@@H](CCC(N)=O)C(=O)N2 (relative stereo) [Compound 123, [4-Aminomethyl-phenylacetyl](1c)*S[Dab](2c)WQE(2c)[Y(2-aminoethoxy)][2-Nal][2-Me-Leu]E(1c)[Dab][3-(3-Pyridyl)-Ala]-[NH2]]	46	4	7.83
CC(=O)N[C@H]1CCCCNC(=O)CC[C@@H](C(=O)N[C@@H](CCCNC(=N)N)C(N)=O)NC(=O)[C@@H](CC(C)C)NC(=O)[C@H](Cc2ccc3ccccc3c2)NC(=O)[C@H](Cc2ccc(OCCN)cc2)NC(=O)[C@@H]2CSCC(=O)CSC[C@H](NC(=O)[C@H](CO)NC1=O)C(=O)N[C@@H](Cc1c[nH]c3ccccc13)C(=O)N[C@@H](CCC(N)=O)C(=O)N2 [Compound 48, [Ac]-K(1c)SC(2a)WQC(2a)[Y(2-aminoethoxy)][2-Nal][{d}L]E(1c)R-[NH2]] (Ac-KSCWQC[AEF][2Nal][dL]ER-NH2; lactam 1-10; linker 3-6 via CH2COCH2)	0	0	17000
CC(=O)N[C@H]1CCCCNC(=O)CC[C@@H](C(=O)N[C@H](CCCNC(=N)N)C(N)=O)NC(=O)[C@](C)(CC(C)C)NC(=O)[C@H](Cc2ccc3ccccc3c2)NC(=O)[C@H](Cc2ccc(OCCN)cc2)NC(=O)[C@@H]2CSCC(=O)CSC[C@H](NC(=O)[C@H]([C@@H](C)O)NC1=O)C(=O)N[C@@H](Cc1c[nH]c3ccccc13)C(=O)N[C@@H](CCC(N)=O)C(=O)N2 [Compound 85, [Ac]-K(1c)TC(2a)WQC(2a)[Y(2-aminoethoxy)][2-Nal][2-Me-Leu]E(1c)[{d}R]-[NH2]] (Ac-KTCWQC[AEF][2Nal][αMeL]E[dR]-NH2; lactam 1-10; linker 3-6 via CH2COCH2)	–	74	321
CC(C)C[C@]1(C)NC(=O)[C@H](Cc2ccc3ccccc3c2)NC(=O)[C@H](Cc2ccc(OCCN)cc2)NC(=O)[C@@H]2CSCC(=O)CSC[C@H](NC(=O)[C@H](CO)NC(=O)CCCCCNC(=O)CC[C@@H](C(=O)N[C@H](CCCNC(=N)N)C(N)=O)NC1=O)C(=O)N[C@@H](Cc1c[nH]c3ccccc13)C(=O)N[C@@H](CCC(N)=O)C(=O)N2 [Compound 87, [6-Aminohexanoyl](1c)*SC(2a)WQC(2a)[Y(2-aminoethoxy)][2-Nal][2-Me-Leu]E(1c)[{d}R]-[NH2]] ([Ahx]SCWQC[AEF][2Nal][αMeL]E[dR]-NH2; linker 3-6 via CH2COCH2; lactam N-10)	95	–	439
CC(C)C[C@]1(C)NC(=O)[C@H](Cc2ccc3ccccc3c2)NC(=O)[C@H](Cc2ccc(OCCN)cc2)NC(=O)[C@@H]2CSCC(=O)CSC[C@H](NC(=O)[C@H](CO)NC(=O)CN3CCN(CCNC(=O)CC[C@@H](C(=O)N[C@H](CCCNC(=N)N)C(N)=O)NC1=O)CC3)C(=O)N[C@@H](Cc1c[nH]c3ccccc13)C(=O)N[C@@H](CCC(N)=O)C(=O)N2 [Compound 90, [(4-(2-Aminoethyl)-piperazine-1-yl)-acetyl](1c)*SC(2a)WQC(2a)[Y(2-aminoethoxy)][2-Nal][2-Me-Leu]E(1c)[{d}R]-[NH2]] ([Pipz(1-CH2CO,4-CH2CH2NH)]SCWQC[AEF][2Nal][αMeL]E[dR]-NH2; linker 3-6 via CH2COCH2; lactam N-10)	–	67	706
CC[C@H](C)[C@@H]1NC(=O)Cc2ccc(cc2)CNC(=O)CC[C@@H](C(=O)N[C@@H](CCN)C(=O)N[C@@](C)(Cc2cccnc2)C(N)=O)NC(=O)[C@](C)(C(C)C)NC(=O)[C@H](Cc2cn(C)c3ccccc23)NC(=O)[C@H](Cc2ccc(C)cc2)NC(=O)[C@@H]2CCNC(=O)CC[C@H](NC1=O)C(=O)N[C@@H](Cc1c[nH]c3ccccc13)C(=O)N[C@@H](CCC(N)=O)C(=O)N2 [Compound 175, [4-Aminomethyl-phenylacetyl](1c)*IE(2c)WQ[Dab](2c)[F(4-Me)][1-Me-Trp][2-Me-Val]E(1c)[Dab][2-Me-3-(3-Pyridyl)-Ala]-[NH2]] ([X1]IEWQ[Dab][Phe(4-Me)][Trp(1-Me)][αMeV]E[Dab][αMeAla(3-pyridyl)]-NH2; lactam 3-6, N-10)	–	93	–
